This note sets out measurements from patent publication US20190194279A1, “Wound Healing Peptide” (James Cook University, priority 2016, published 2019).

“Also recorded” adds a separate entry of the source. Where no end group is shown, it is not given here.

One assay has as its system H69 cells. Put plainly: Cell proliferation monitoring in real time using xCELLigence (Example 2, 200 nM, 48 h). Format: cell-based, human. As to conditions: 200 nM peptide. On the procedure: H69 cell line, non-malignant cholangiocyte cell line was obtained from Dr. Gregory J. Gores, Mayo Clinic, Rochester, Minn.^34. H69 cells were grown and maintained as previously described^34 in DMEM/F12 (Life Technologies) containing 1× antibiotic/antimycotic and 15 mM HEPES, supplemented with 10% fetal bovine serum (FBS) (Gibco, Scotland) at 37 C and 5% incubator. Cell proliferation assays were performed with modified DMEM/F12 media supplemented with 0.5% FBS and particular hormone and growth factors in a certain concentration range as listed in the previous study^34.
Proliferation study in real time was performed using xCELLigence SP system (ACEA Biosciences) as described previously^34. H69 cells were plated into a 96-well xCELLigence E-plate (ACEA Biosciences) at a density of 2000 cells/well; then placed in the xCELLigence system positioned in a 5% CO2 incubator at 37° C. and monitored overnight^47. Then, the complete media was replaced with 180 μl of starvation media (modified DMEM/F12 media supplemented with […] as described previously^34) and incubated for at least 6 hour. Treatments were added to each well in a total volume of 20 μl to provide 200 nM final concentrations. […] Cell proliferation rate was calculated as the relative numbers of treated cells compared to control cells over time (48 hours in culture). […] Each treatment was measured in quadruplicate.

For assay [1], the system named is skin-deep wound on the crown of the head. The format is in vivo, BALB/c mice. As to conditions: mouse; for day 4 wound healing relative to controls, result in words (Example 3): 56 pmoles topical daily days 0-4, relative to peptide control. The protocol: These studies were conducted with the approval of the James Cook University Small Animal Ethics Committee, applications A1806 and A2204, as described^6. Briefly, 4-5 female BALB/c mice per group were anesthetized (intraperitoneal xylazine 16 mg/kg; ketamine 80 mg/kg), after which a skin-deep wound on the crown of the head was inflicted using a 5 mm biopsy punch (Zivic instruments). […] Wounds were photographed daily and after blinding treatment groups the area of the lesion was measured with ImageJ software and plotted as percent of wound closure from original wound images. […] Each mouse wounding study was conducted at least twice to provide reproducibility.
Day 4 wound healing were assessed using peptides as described herein (Ov-GRN-1, Ov-GRN1-35, Ov-GRN8-38, Ov-GRN12-34, Ov-GRN12-35_3s, GRN24-3ala, GRN24-P2A, GRN24-P4A, and GRN27sps).

A further assay deals with H69 human cholangiocytes. The experiment in a line: Cell proliferation monitoring in real time using xCELLigence (Example 1, day 4). As to conditions: for increase in cell proliferation over peptide controls: at 400 nM; for cell proliferation, result in words: concentrations tested 10 nM-2 μM. Format: cell-based. An excerpt:
Mammalian Cell Culture The non-malignant cholangiocyte cell line H69 is a SV40-transformed human bile duct epithelial cell line derived from human liver, kindly provided by Dr. Gregory J. Gores, Mayo Clinic, Rochester, Minn. H69 cells^23, 29, 30 were maintained in T75 cm^2 vented flasks (Corning) as monolayers as described^31 with minor modifications. Cells were maintained with regular splitting using 0.25% trypsin (Life Technologies) every 2-5 days in complete media [RPMI (Sigma) with growth factor-supplemented specialist complete media^30 [DMEM/F12 with high glucose, 10% FCS, 1×antibiotic/antimycotic, 25 μg/ml adenine, 5 μg/ml insulin, 1 μg/ml epinephrine, 8.3 μg/ml holo-transferrin, 0.62 μg/ml, hydrocortisone, 13.6 ng/ml T3 and 10 ng/ml EGF—Life Technologies]. Low nutrient media for cell proliferation assays was 5% complete media, i.e. 0.5% FCS and 1/20th of the growth factor concentrations listed above for complete media. The identities (human-derived) of the cell line were confirmed with […] (STR) analysis in January 2015 (15/15 positive loci across 2 alleles) and mycoplasma free at the DNA Diagnostics Centre (DDC)-medical (U.S.A.), accredited/certified by CAP, ISO/IEC 17025:2005 through ACLASS.
Cell proliferation monitoring in real time using xCELLigence Cells were seeded at 1,500 cells/well in 180 μl complete media (above) in E-plates (ACEA Biosciences) and grown overnight while monitored with an xCELLigence SP system (ACEA Biosciences) which monitors cellular events in real time by measuring electrical impedance across interdigitated gold micro-electrodes integrated into the base of tissue culture plates^32. Cells were washed three times with PBS prior to addition of 180 μl of low nutrient media (above) and incubated for a minimum of 6 h before further treatment. Treatments were prepared at 10× concentration and added to each well in a total volume of 20 μl. The xCELLigence system recorded cell indexes at intervals of one hour for 5-6 days following treatment. Readings for the cell index were normalized prior to treatment and cell proliferation ratios were determined from biological quadruplicates and represent the relative numbers of cells compared to control cells at day 4. Comparisons of induction of cell proliferation in response to treatments were accomplished using two-way ANOVA test with Dunnett's multiple comparison correction, using GraphPad Prism 6.02.

On to CADAVYTCRAGQTCCRGLHGYGCC [GRN3Ala], for which the “effect on cell proliferation compared to the control peptide, result in words” value with H69 cells is listed as “did not have statistically significant effect”; in the assay on H69 cells (listed as SEQ ID NO:9), “did not enhance cell proliferation”.

In the case of CADPVYTCRPGQTCCRGLHGYGCC [GRN24P2A], the “proliferation rate relative to the control peptide” value in the assay with H69 cells was 131.7%.

Consider CPDAVYTCRPGQTCCRGLHGYGCC [P4A], for which, in the assay with H69 cells, the “proliferation rate relative to the control peptide” value is recorded as 141.6%.

CPDPVYTCRAGQTCCRGLHGYGCC [P10A]: the “proliferation rate relative to the control peptide” value with H69 cells is reported as 131.4%.

With “CPDPVYTCRPGQTCCRGLHGYGCC [Ov-GRN12-35_3s]”, in assay [1], the “wound healing activity in vivo compared with the other Ov-GRN-1 peptides, in words” value was “no more active in vivo than the other Ov-GRN-1 peptides” and the “day 4 wound healing relative to controls, result in words (Example 3)” value (“day 4 wound healing relative to controls” for short) is given as “significant increases in wound healing”. In addition, in the assay on H69 human cholangiocytes, the “increase in cell proliferation over peptide controls” value worked out at 26% and the “cell proliferation, result in words” value is on record as “most potent peptide in the cell proliferation assay”. Also, the “increase in cell growth compared to control peptide” value in the assay with H69 human cholangiocytes (final concentration of 2 (unit not given), day 4) is 41%. Moreover, the “final concentrations with significantly increased cell proliferation (p<0.05)” value in the assay with H69 human cholangiocytes (four days after single application) is given as over 15 nM.

In the case of “Ov-GRN1-35: truncated Ov-GRN-1 peptide, residues 1-35, four cysteines, two disulfide bonds, Cys IV and Cys VI replaced with alanine (MDTLQPIRSPSCPDPVYTCRPGQTCARGLHGYGCA; disulfide (positions not given here))”, the “day 4 wound healing relative to controls” value in assay [1] is on record as “significant increases in wound healing”. In addition, the “increase in cell proliferation over peptide controls” value in the assay with H69 human cholangiocytes is listed as 9%.

“Ov-GRN8-38: truncated Ov-GRN-1 peptide, residues 8-38, two disulfide bonds (RSPSCPDPVYTCRPGQTCARGLHGYGCAPMD; disulfide (positions not given here))”: in assay [1], the “day 4 wound healing relative to controls” value was “significant increases in wound healing”.

As for “Ov-GRN12-34: minimal Ov-GRN-1 sequence that contains the four cysteine residues, two disulfide bonds (CPDPVYTCRPGQTCARGLHGYGC; disulfide (positions not given here))”, the “day 4 wound healing relative to controls” value in assay [1] was “significant increases in wound healing”.

“carp granulin1-30: N-terminal 30 residues of carp granulin-1 with Cys IV and Cys VI replaced with alanine residues (VIHCDAATICPDGTTCALSPYGVWYCAPFS) [reference compound]”: the “maximum proliferation over peptide controls” value in the assay with H69 human cholangiocytes (at 32 nM) is listed as 9%. Besides, the “cell proliferation, result in words” value in the assay on H69 human cholangiocytes was “minimal cell proliferation (non-significant); also recorded: no substantial proliferation”.
